Data reported in publication PMC5085761 (International Journal of Molecular Sciences, 2016).

Assays:
Type in all cases: in vitro ADME
OCT2 [1] = target: T1, OCT2 (Homo sapiens, UniProt O15244); assay: [14C]fluciclovine uptake by OCT2-expressing cells; conditions: OCT2 cells vs mock cells
T1 construct: host or cells: HEK293
T1 sequence (O15244 1-555): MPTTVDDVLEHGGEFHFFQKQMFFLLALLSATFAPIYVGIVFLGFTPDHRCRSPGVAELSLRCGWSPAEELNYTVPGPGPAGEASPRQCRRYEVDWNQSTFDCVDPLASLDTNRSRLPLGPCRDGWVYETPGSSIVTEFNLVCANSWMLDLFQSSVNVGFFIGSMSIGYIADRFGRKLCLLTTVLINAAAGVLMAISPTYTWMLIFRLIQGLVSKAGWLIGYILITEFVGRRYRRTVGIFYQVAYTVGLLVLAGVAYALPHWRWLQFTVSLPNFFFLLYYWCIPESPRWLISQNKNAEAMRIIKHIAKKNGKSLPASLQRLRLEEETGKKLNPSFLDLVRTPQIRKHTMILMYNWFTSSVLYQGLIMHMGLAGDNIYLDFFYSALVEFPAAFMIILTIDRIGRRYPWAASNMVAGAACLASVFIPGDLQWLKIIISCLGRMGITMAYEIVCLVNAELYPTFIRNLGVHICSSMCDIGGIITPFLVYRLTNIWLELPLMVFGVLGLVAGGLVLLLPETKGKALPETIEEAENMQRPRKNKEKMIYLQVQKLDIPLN

OAT3 = target: T2, OAT3 (Homo sapiens, UniProt Q8TCC7); assay: [14C]fluciclovine uptake by OAT3-expressing cells; conditions: OAT3 cells vs mock cells
T2 construct: host or cells: HEK293
T2 sequence (Q8TCC7 1-542): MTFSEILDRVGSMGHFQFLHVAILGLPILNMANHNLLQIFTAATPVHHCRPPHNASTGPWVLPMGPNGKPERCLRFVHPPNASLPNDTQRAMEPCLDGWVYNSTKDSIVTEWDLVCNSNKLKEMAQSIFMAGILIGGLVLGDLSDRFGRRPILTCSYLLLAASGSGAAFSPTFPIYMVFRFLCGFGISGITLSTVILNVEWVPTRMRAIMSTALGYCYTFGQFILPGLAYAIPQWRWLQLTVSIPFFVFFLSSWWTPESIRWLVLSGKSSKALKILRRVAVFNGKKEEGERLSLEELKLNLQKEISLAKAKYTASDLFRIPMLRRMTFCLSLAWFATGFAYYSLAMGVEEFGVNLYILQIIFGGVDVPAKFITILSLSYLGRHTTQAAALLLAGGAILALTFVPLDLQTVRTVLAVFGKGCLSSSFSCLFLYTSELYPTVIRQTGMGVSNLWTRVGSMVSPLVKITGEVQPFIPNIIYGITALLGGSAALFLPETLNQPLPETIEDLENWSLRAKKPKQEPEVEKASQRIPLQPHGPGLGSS

OCT2 [2] = target: T1, OCT2; assay: Inhibition of tracer uptake in OCT2-expressing cells; conditions: OCT2, tracer [14C]metformin 10 µM
OAT1 = target: T3, OAT1 (Homo sapiens, UniProt Q4U2R8); assay: Inhibition of tracer uptake in OAT1-expressing cells; conditions: OAT1, tracer [14C]PAH 1 µM
T3 construct: host or cells: Flp-in-293
T3 sequence (Q4U2R8 1-563): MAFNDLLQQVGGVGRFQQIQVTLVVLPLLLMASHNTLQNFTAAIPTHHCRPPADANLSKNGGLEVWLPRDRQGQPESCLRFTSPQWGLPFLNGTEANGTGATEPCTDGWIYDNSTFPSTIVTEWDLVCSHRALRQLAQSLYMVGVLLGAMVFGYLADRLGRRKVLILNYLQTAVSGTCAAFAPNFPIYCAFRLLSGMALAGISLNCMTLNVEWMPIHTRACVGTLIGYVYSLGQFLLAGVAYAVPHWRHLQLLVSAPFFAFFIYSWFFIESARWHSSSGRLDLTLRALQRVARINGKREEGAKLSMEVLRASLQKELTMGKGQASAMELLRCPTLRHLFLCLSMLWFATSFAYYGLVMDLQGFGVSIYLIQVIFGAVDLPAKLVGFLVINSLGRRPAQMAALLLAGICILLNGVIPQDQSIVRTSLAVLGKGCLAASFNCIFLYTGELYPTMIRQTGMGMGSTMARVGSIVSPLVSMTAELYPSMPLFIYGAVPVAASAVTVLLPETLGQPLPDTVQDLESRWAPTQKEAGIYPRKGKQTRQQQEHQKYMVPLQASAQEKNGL
Method: For the SLC transporter experiments, Mock Flp-in-293 cells (Flp/mock), OAT1-expressing Flp-in-293 cells (Flp/OAT1), mock HEK293 cells (HEK/mock), and OATP1B3-expressing HEK293 cells (HEK/OATP1B3) were obtained from Kanazawa University (Ishikawa, Japan). Briefly, Flp-in-293 and HEK293 cells were transfected with the appropriate plasmid DNA and selected using antibiotics (hygromycin or G-418). All cell lines were cultured in DMEM (Life Technologies Japan) supplemented with 10% (v/v) fetal bovine serum (American Type Culture Collection) and antibiotics (100 U/mL penicillin and 100 μg/mL streptomycin (Life Technologies Japan) for mock cells, 0.2 mg/mL hygromycin for Flp/OAT1 cells, and 1.2 mg/mL G-418 (Roche Diagnostics K.K., Tokyo, Japan) for HEK/OATP1B3 cells) at 37 °C under an atmosphere containing 5% CO2. […]
The experiments were performed as described previously, with minor modifications. […] The cells were lysed in 0.3 mL of 0.1N NaOH at room temperature, after which the radioactivity of each aliquot was measured as described above. The protein concentration of the cell lysate was determined with a VersaMax microplate reader (Molecular Devices Japan K.K., Osaka, Japan) or SpectraMax i3x (Molecular Devices Japan K.K.; only for OATP1B1) using a BCA Protein Assay Kit (Thermo Fisher Scientific, Kanagawa, Japan). Tracer uptake was expressed as pmol/mg protein. […]

With `N[14C]1(C(=O)O)CC(F)C1` (stereo not drawn) [[^14C]fluciclovine, trans-1-amino-3-fluoro[1-^14C]cyclobutanecarboxylic acid] the drug transporter-mediated uptake (OCT2 [1]) was “negligible” and the drug transporter-mediated uptake (OAT3) was “negligible”.
Compound `N[C@]1(C(=O)O)C[C@@H](F)C1` [fluciclovine] has an IC50 (OCT2 [2]) of 8.95 ± 1.96 mM and an IC50 (OAT1) of 3.98 ± 1.77 mM.
